Source: patent publication US11033609B2, “Cyclic acetylcholinesterase C-terminal peptide in the treatment or prevention of cancer or metastasis” (priority 2014, dated 2021)
Where a SMILES comes first, the peptide text is derived from it.

Columns and labels:
Type in all cases: cell-based, human
KG1a cells [1] = assay: Annexin V/propidium iodide in vitro apoptosis (cytotoxicity) assay; details: 72 h
Procedure: (§1) The acute myeloid leukaemia (AML) KG1a cell line was maintained in RPMI medium (Invitrogen) supplemented with 100 units/ml penicillin, 100 μg/ml streptomycin and 20% foetal calf serum. The multiple myeloma (MM) cell line H929, the two breast cancer cell lines (MCF7 and MDA-MB-231), the MEC-1 cells and the primary chronic lymphocytic leukaemia cells were maintained in RPMI medium supplemented with 100 units/ml penicillin, 100 μg/ml streptomycin and 10% foetal calf serum. The media used contained acetylcholine but after the initial set of experiments an additional 100 μM of acetylcholine was added to the culture media. Cells were subsequently aliquoted (10^6 cells/ml) into 24-well plates and were incubated at 37° C. in a humidified 5% carbon dioxide atmosphere for 72 h in the presence of the peptides (T15, T30, NBP-14 and the combination of T30+NBP-14) at concentrations between 0.1 nM and 1 μM. In addition, control cultures were carried out to which no peptide was added. Cells were subsequently harvested by centrifugation and were analysed by flow cytometry using the Annexin V assay or were counted using a Vi-Cell XR cell viability counter (Beckman Coulter).
(§2) Cultured cells were harvested by centrifugation and then resuspended in 195 of calcium-rich buffer. Subsequently, 5 μl of Annexin V (eBiosciences) was added to the cell suspension and cells were incubated in the dark for 10 mins prior to washing. Cells were finally resuspended in 190 μl of calcium-rich buffer together with 10 μl of propidium iodide. Apoptosis was assessed by dual-colour immunofluorescent flow cytometry using an Accuri C6 flow cytometer and data were analysed using CFlow software (BD Biosciences).
(§3) The in vitro drug sensitivity was measured using the Annexin V/propidium iodide assay. Comparison of the effects of each peptide alone or in combination in the various cell lines and primary cells are shown below.

H929 cells [2] = assay: as above; details: H929, 72 h
Procedure: as §1, §2, §3

MCF7 cells [3] = assay: as above; details: MCF7, 72 h, peptides 0.1 nM to 1 μM
Procedure: as §1, §2, §3

MDA-MB-231 cells [4] = assay: as above; details: MDA-MB-231, 72 h, peptides 0.1 nM to 1 μM
Procedure: as §1, §2, §3

MEC-1 cells [5] = assay: as above; details: MEC-1, 72 h
Procedure: as §1, §2, §3

primary CLL cells [6] = assay: as above; details: for apoptosis (cytotoxic effect): primary CLL cells derived from patients, 72 h
Procedure: as §1, §2, §3

[7] = test system: normal B- and T-lymphocytes; assay: Annexin V/propidium iodide apoptosis assay in normal cells; details: B- and T-lymphocytes from normal healthy volunteers
Procedure: as §2, §3
In order to assess the effects of the acetylcholinesterase-derived peptides on normal (non-malignant) cells, B- and T-lymphocytes were isolated from normal healthy volunteers (n=3).

H929 cells [8] = assay: In vitro proliferation (Vi-Cell XR viable cell count); details: H929, concentrations above 0.1 μM
Procedure: as §1
(§4) Cultured cells were harvested by centrifugation and were then counted using a Vi-Cell XR cell viability counter. The number of viable cells in each culture was then expressed as a percentage of the viable cells in the control cultures (no peptide).

KG1a cells [9] = assay: as above; details: concentrations above 0.1 μM
Procedure: as §1, §4

MCF7 cells [10] = assay: as above; details: MCF7, concentrations above 0.1 μM
Procedure: as §1, §4

MDA-MB-231 cells [11] = assay: as above
Procedure: as §1, §4

MEC-1 cells [12] = assay: as above; details: MEC-1, concentrations above 0.1 μM
Procedure: as §1, §4

JJN3 cells [13] = assay: Transwell migration assay; details: for migration: JJN3, 1 μM peptide, 24 h transwell, vs no peptide control
Procedure: (§5) The acute myeloid leukaemia (AML) KG1a cell line was maintained in RPMI medium (Invitrogen) supplemented with 100 units/ml penicillin, 100 μg/ml streptomycin and 5% foetal calf serum. The multiple myeloma (MM) cell line JJN3, the two breast cancer cell lines (MCF7 and MDA-MB-231), the primary chronic lymphocytic leukaemia cells and normal B-lymphocytes were maintained in RPMI medium supplemented with 100 units/ml penicillin, 100 μg/ml streptomycin and 5% foetal calf serum. In addition, 100 μM of acetylcholine was added to the culture media to ensure that the availability of acetylcholine was not a limiting factor in these experiments.
(§6) In vitro migration assays were performed by using 6.0 μm pore size transwell migration plates (Costar, Corning, N.Y.). A total of 10^6 CLL cells in 500 μl of RPMI media were added to the upper chamber of the transwell insert. 100 ng/ml of CXCL12 was added to the baso-lateral chamber for all the cell types tested apart from KG1a cells. […] Instead, media containing 10% foetal calf serum was added to the baso-lateral chamber in these experiments. The plates were incubated for 24 h at 37° C. in 5% CO2 in the presence of the peptides (T15, T30, NBP-14 and the combination of T30+NBP-14) at concentrations between 0.1 nM and 10 μM. In addition, control cultures were carried out to which no peptide was added. Cells were subsequently harvested by centrifugation and were analysed by flow cytometry using an Accuri C6 flow cytometer (BD). None of the conditions tested induced significant cell death in the cultures. Migration of CLL cells was determined by counting cells that migrated to the lower (baso-lateral) chamber of the transwell plate and then expressed as a percentage of the total number of cells initially added to the upper (apical) chamber.

KG1a cells [14] = assay: Transwell migration assay; details: for migration: 1 μM peptide, 24 h transwell, vs no peptide control
Procedure: as §5, §6

MCF7 cells [15] = assay: Transwell migration assay; details: for migration: MCF7, 1 μM peptide, 24 h transwell, vs no peptide control
Procedure: as §5, §6

MDA-MB-231 cells [16] = assay: Transwell migration assay; details: for migration: MDA-MB-231, 1 μM peptide, 24 h transwell, vs no peptide control
Procedure: as §5, §6

normal B-lymphocytes = assay: Transwell migration assay; details: normal B-lymphocytes from healthy volunteers, 1 μM peptide, 24 h transwell
Procedure: as §5, §6

primary CLL cells [17] = assay: Transwell migration assay; details: for migration: primary CLL cells from 10 patients, 1 μM peptide, 24 h transwell
Procedure: as §5, §6

JJN3 cells [18] = assay: In vitro proliferation; details: JJN3, concentrations of peptide >0.1 μM
H929 cells [19] = assay: Transwell migration assay; details: H929, 1 μM NBP-14 vs baseline control
Procedure: as §6

MEC-1 cells [20] = assay: Transwell migration assay; details: MEC-1, 1 μM NBP-14 vs baseline control
Procedure: as §6

| Compound | apoptosis (cytotoxic effect) (KG1a cells [1]) | apoptosis (cytotoxic effect) (H929 cells [2]) | apoptosis (cytotoxic effect) (MEC-1 cells [5]) | apoptosis (cytotoxic effect) (primary CLL cells [6]) | migration (JJN3 cells [13]) | migration (KG1a cells [14]) | migration (MCF7 cells [15]) | migration (MDA-MB-231 cells [16]) | migration (normal B-lymphocytes) | migration (primary CLL cells [17]) | also measured |
| --- | --- | --- | --- | --- | --- | --- | --- | --- | --- | --- | --- |
| Nc1ccn([C@@H]2O[C@H](CO)[C@@H](O)[C@@H]2O)c(=O)n1 [Ara-C, reference compound] | dose-response at concentrations above 0.1 μM | – | – | – | – | – | – | – | – | – | – |
| CSCC[C@@H]1NC(=O)[C@H](Cc2ccc(O)cc2)NC(=O)[C@H](CO)NC(=O)[C@H](CO)NC(=O)[C@H](Cc2c[nH]c3ccccc23)NC(=O)[C@H](CCCNC(=N)N)NC(=O)[C@H](Cc2c[nH]cn2)NC(=O)[C@H](Cc2ccccc2)NC(=O)[C@H](CCC(=O)O)NC(=O)[C@H](C)NC(=O)[C@H](CCCCN)NC(=O)[C@H](Cc2c[nH]c3ccccc23)NC(=O)[C@H](Cc2c[nH]cn2)NC(=O)[C@H](C(C)C)NC1=O [NBP-14] (cyclo(AEFHRWSSYMVHWK)) | modest apoptotic effects | modest apoptotic effects | modest apoptotic effects | evidence of dose-response at concentrations above 0.1 μM | significant inhibited | significantly inhibited | little effect | significantly inhibited | significant reduction | significant reduction in migration | apoptosis (cytotoxic effect) (MCF7 cells [3]): relatively increased sensitivity; apoptosis (cytotoxic effect) (MDA-MB-231 cells [4]): modest apoptotic effects; apoptosis (primary CLL cells [6]; primary CLL cells, at 1 μM): ~20%; toxicity in normal (non-malignant) cells [7]: lack of toxicity; proliferation (H929 cells [8]): reduced proliferation; proliferation (KG1a cells [9]): reduced proliferation; proliferation (MCF7 cells [10]): not as significant; proliferation (MDA-MB-231 cells [11]; MDA-MB-231, peptide concentrations above 0.1 μM, compared with T15 control peptide): significant reduction in proliferation; proliferation (MEC-1 cells [12]): reduced proliferation; inhibition of migration compared with T30 (JJN3 cells [13]; JJN3, 1 μM, 24 h): significantly greater extent; migration (dose-response) (JJN3 cells [13]; JJN3, NBP-14 at concentrations ≥1 μM): significant decrease in migration; migration (dose-response) (KG1a cells [14]; NBP-14 at concentrations ≥1 μM): significant decrease in migration; migration (dose-response) (MCF7 cells [15]; MCF7, NBP-14 at concentrations ≥1 μM): failed to show a significant reduction in migration; migration (dose-response) (MDA-MB-231 cells [16]; MDA-MB-231, NBP-14 at concentrations ≥1 μM): significant decrease in migration; sensitivity of primary CLL cells to anti-migratory effect compared with normal B-cells (primary CLL cells [17]; primary CLL cells vs normal B-cells, 24 h): significantly more sensitive; proliferation (JJN3 cells [18]): anti-proliferative activity; migration (H929 cells [19]): significant reduction in cell migration; migration (MEC-1 cells [20]): significant reduction in cell migration |
| Nc1nc(F)nc2c1ncn2[C@@H]1O[C@H](CO)[C@@H](O)[C@@H]1O [fludarabine, reference compound] | – | induced a dose-response | induced a dose-response | – | – | – | – | – | – | – | – |
| Rituximab [reference compound] | – | – | – | more pronounced dose-response | – | – | – | – | – | – | – |
| T15 (NQFDHYSKQDRCSDL; listed as Homo sapiens) [reference compound] | – | – | – | – | no significant effect | did not alter | Neither the T15 nor the T30 peptide showed a significant effect | – | no significant effect | did not significantly altered | – |
| T30 (KAEFHRWSSYMVHWKNQFDHYSKQDRCSDL; listed as Homo sapiens) [reference compound] | – | – | – | – | significant inhibited | did not alter | Neither the T15 nor the T30 peptide showed a significant effect | significantly inhibited | no significant effect | did not significantly altered | proliferation (MDA-MB-231 cells [11]; MDA-MB-231, sub-nanomolar concentrations): increased proliferation; inhibition of migration compared with NBP-14 (MDA-MB-231 cells [16]; MDA-MB-231, 1 μM, 24 h): significantly less effective |
